{"source": "paper PMC10671052", "about": "“Naphthyl-Substituted Indole and Pyrrole Carboxylic Acids as Effective Antibiotic Potentiators—Inhibitors of Bacterial Cystathionine γ-Lyase” (International Journal of Molecular Sciences, 2023)", "key": {"[1]": {"biological_target": "T1, human cystathionine-γ-lyase (hCSE) (Homo sapiens, UniProt P32929)", "T1 construct": "His6-TEV (N, cleaved yes); host or cells: E. coli", "T1 sequence (P32929 whole entry)": "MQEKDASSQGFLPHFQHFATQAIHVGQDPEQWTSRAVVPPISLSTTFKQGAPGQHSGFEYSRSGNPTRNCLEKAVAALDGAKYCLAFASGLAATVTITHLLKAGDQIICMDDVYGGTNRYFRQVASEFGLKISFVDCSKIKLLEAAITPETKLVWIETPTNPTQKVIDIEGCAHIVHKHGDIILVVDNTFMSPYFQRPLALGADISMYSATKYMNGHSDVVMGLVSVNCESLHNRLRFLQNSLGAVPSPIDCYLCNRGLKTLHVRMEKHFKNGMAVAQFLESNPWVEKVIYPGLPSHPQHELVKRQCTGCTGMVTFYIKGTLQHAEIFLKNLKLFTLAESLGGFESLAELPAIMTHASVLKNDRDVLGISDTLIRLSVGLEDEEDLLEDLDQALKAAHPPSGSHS", "test": "IC50 assay: inhibition of H2S production by purified hCSE, WSP5 fluorescent probe", "format": "biochemical", "conditions": "purified hCSE 0.02 μM, 100 μM L-cysteine, WSP5 probe, mean ± SD; read-out: IC50 biochemical assay hCSE", "procedure,_shortened": "(§1)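 Purified recombinant enzyme (0.02 μM; E. coli-expressed) preincubated 40 min at 30 °C with inhibitor in 50 mM sodium phosphate pH 8.0, 10 μM PLP, 0.1% Tween 20 and 1.2 μM WSP-5. Started with 100 μM L-cysteine; H2S fluorescence (ex 500/em 530 nm) followed 12 h. IC50 from four-parameter fit, mean of ≥2 experiments.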"}, "[2]": {"test": "in vitro", "protocol": "A test compound (final concentration 10 μM) was incubated at 37 °C in SGF, SIF, or human plasma for 2, 2, or 4 h, respectively. 100 μL aliquots were taken from each sample and 300 μL of acetonitrile containing an internal standard was added. […] All compounds were tested in triplicate. The percentage of a remaining compound after incubation was determined based on the chromatographic peak area of the sample after incubation and that of time zero (freshly prepared and injected) sample."}, "[3]": {"test": "in vitro", "format": "in vitro ADME", "conditions": "human, plasma, pH 7.4, Fraction bound fb", "protocol": "Plasma protein binding was assessed using RED device inserts with built-in cellulose acetate dialysis membranes (molecular weight cutoff: 8 kDa). The final concentration of the test compound in human plasma was 5 μM. The samples were prepared by placing 300 μL of human plasma into the plasma compartment of the RED device and 500 μL of phosphate-buffered saline (pH 7.4) into the buffer compartment. The RED device was fixed to a shaker, placed in a CO2 (5%) incubator, and incubated for 6 h at 37 °C. After an equilibration step, 100 μL aliquots were taken from each compartment; 100 μL of plasma was added to the buffer compartment aliquot and 100 μL of buffer was added to the plasma compartment aliquot. After mixing, 600 μL of acetonitrile containing an internal standard was added. […] All compounds were tested in duplicate. Fraction bound fb was determined via the following equation: fb (%) = [1 − (Cb/Cp)] × 100, where Cb is the concentration of an analyte in the buffer compartment (μM), and Cp is the concentration of the analyte in the plasma compartment (μM)."}, "[4]": {"system": "A. baumannii GIMC5509:ABT-52Ts19", "test": "MIC of antibiotics alone and with potentiators, clinical isolate", "experimental": "Overnight (ON) culture of a specific strain was grown in the liquid Luria–Bertani nutrient medium (LB broth, BD Difco) for 18 h at 37 °C, with agitation at 180 rpm using an Innova 44R orbital shaker (Eppendorf, Hamburg, Germany). After a certain period, 50 µL of the ON culture was transferred into 5 mL of the LB medium and grown for 3 h at 37 °C with agitation. Growth in the liquid medium was assessed by means of turbidity of the suspension, measured using a Densi-La-Meter II densitometer (Erba Lachema s.r.o., Brno, Czech Republic). Then, the bacterial suspension was diluted to the concentration 10^6 cells/mL with sterile LB and used as a seed culture [38, 39].\nFor the assessment of MICs, 96-well microtiter plates were utilized at 200 µL of a medium per well. Each well was filled with 100 µL of the seed culture. After that, 10 µL of a solution of each tested synthetic compound (potentiators) was added into each experimental well. Finally, 90 µL of twofold serial dilutions of an antibiotic in a sterile LB was added into individual wells.\nAs a positive control, we set up wells with 100 µL of the bacterial culture and 100 µL of the sterile LB medium. […] Negative-control wells contained 200 µL of the sterile medium. The plates were incubated in a thermostat for 18–20 h at 37 °C. The bacterial growth was assessed as optical density at 600 nm on a CLARIOstar microplate reader (BMG LABTECH GmbH, Ortenberg, Germany))."}, "[5]": {"test": "physchem", "format": "physicochemical", "conditions": "25 °C, pH 7.4, aqueous buffer, kinetic from dmso stock, Solubility", "protocol": "A stock solution of a compound (10 mM in DMSO, 10 μL) was added to 990 μL of 100 mM sodium phosphate buffer (pH 7.4) and incubated at 25 °C for 2 h with constant shaking. The suspension was filtered through the PVDF membrane filter (Merck Millipore, Burlington, MA, USA). To 320 µL of the filtrate, 80 µL of acetonitrile was added and mixed. The mixture was transferred to a vial and analyzed by ultra-high-performance liquid chromatography (UHPLC) with UV detection. Concentrations were calculated from a 5-point calibration curve. The calibration range was 1 to 100 μM. The controls were diclofenac and nicardipine. All compounds were tested in triplicate."}, "[6]": {"biological_target": "S. aureus cystathionine-γ-lyase (bCSE) (Staphylococcus aureus, UniProt A0A0H3K724)", "sequence (A0A0H3K724 entry or part of it)": "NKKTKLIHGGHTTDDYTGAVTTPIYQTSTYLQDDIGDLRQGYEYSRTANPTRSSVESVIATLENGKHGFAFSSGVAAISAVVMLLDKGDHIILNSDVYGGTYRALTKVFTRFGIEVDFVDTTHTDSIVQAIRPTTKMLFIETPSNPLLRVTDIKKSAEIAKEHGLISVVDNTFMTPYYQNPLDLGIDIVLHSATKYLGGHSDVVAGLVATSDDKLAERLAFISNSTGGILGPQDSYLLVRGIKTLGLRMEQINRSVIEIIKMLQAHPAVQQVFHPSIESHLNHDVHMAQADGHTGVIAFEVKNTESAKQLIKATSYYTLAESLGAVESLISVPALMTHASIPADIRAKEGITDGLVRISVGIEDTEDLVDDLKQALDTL", "test": "IC50 assay: inhibition of H2S production by purified bCSE, WSP5 fluorescent probe", "format": "biochemical", "procedure,_shortened": "as §1"}, "[7]": {"conditions": "A. baumannii GIMC5509:ABT-52Ts19, potentiator 50 µg/mL"}}}
{"molecule": "O=C(O)c1cc2ccccc2n1Cc1cccc2ccccc12", "note": "[Compound 2a]", "values": [{"measurement": "IC50", "setting": "[1]", "value": "251 ± 16.6", "unit": "µM"}, {"measurement": "Stability in human plasma, % Remaining at 4 h", "setting": "[2]; 4 h, 10 μM", "value": 97.6, "unit": "%"}, {"measurement": "remaining at 4 h, 10 μM", "setting": "[2]; human, plasma, Stability in human plasma, % Remaining at 4 h", "value": "97.6 ± 7.95", "unit": "%"}, {"measurement": "Stability in SGF, % Remaining at 2 h", "setting": "[2]; simulated gi fluid, 2 h, 10 μM", "value": 91.9, "unit": "%"}, {"measurement": "Stability in SIF, % Remaining at 2 h", "setting": "[2]; simulated gi fluid, 2 h, 10 μM", "value": 104.1, "unit": "%"}, {"measurement": "remaining at 2 h, 10 μM", "setting": "[2]; simulated gi fluid, Stability in SGF", "value": "91.9 ± 2.68", "unit": "%"}, {"measurement": "remaining at 2 h, 10 μM", "setting": "[2]; simulated gi fluid, Stability in SIF", "value": "104 ± 14.2", "unit": "%"}, {"measurement": "fraction unbound at 6 h, 5 μM", "setting": "[3]", "value": "< 0.01"}, {"measurement": "MIC of Tacillin in combination with potentiator", "setting": "[4]; A. baumannii GIMC5509:ABT-52Ts19, piperacillin + tazobactam, potentiator 50 µg/mL", "value": 64, "unit": "µg/mL"}, {"measurement": "MIC of Cefepim in combination with potentiator", "setting": "[4]; [7]", "value": 256, "unit": "µg/mL"}, {"measurement": "MIC of Meropenem in combination with potentiator", "setting": "[4]; [7]", "value": 32, "unit": "µg/mL"}, {"measurement": "solubility at 2 h", "setting": "[5]", "value": "> 100", "unit": "µM"}, {"measurement": "IC50", "setting": "[6]; IC50 (uM), bCSE enzymatic IC50, rounded, repeated in Table S13", "value": 65, "unit": "µM"}, {"measurement": "IC50", "setting": "[6]; IC50 (uM), bCSE enzymatic IC50, rounded, repeated in Table S14", "value": 65, "unit": "µM"}, {"measurement": "IC50", "setting": "[6]; IC50 (uM), bCSE enzymatic IC50, rounded, repeated in Table S15", "value": 65, "unit": "µM"}, {"measurement": "IC50", "setting": "[6]; IC50 biochemical assay bCSE, purified bCSE 0.02 μM, 100 μM L-cysteine, WSP5 probe, mean ± SD", "value": "64.6 ± 3.1", "unit": "µM"}]}
